Assay results published in US9610262B2, “Therapeutic and/or preventive agent comprising 1-indansulfamide derivative for pain” (Eisai R&D Management Co., Ltd., priority 2013, dated 2017).

Assays:
[1] = system: acute persistent pain (formalin-injected paw); assay: Formalin test (second phase); format: in vivo, Male CD1 (ICR) mice; settings: oral pre-administration; 15 to 45 minutes after injection of 2.5% formalin; FIG. 2
Protocol: The compounds were examined in the second phase of the formalin test to determine an analgesic effect on acute persistent pain. In this model, the duration of responses induced by pain (behavior such as licking or biting of the formalin-injected paw) is used as an evaluation index (Dubuisson and Dennis (Pain, 4: p. 161-174 (1977)). Male CD1 (ICR) mice (Charles River Japan) aged 5 to 6 weeks (n=6 to 16, for each treatment) were used for the experiment. The responses induced by pain were measured by an automated behavioral analysis apparatus (MicroAct (Neuroscience, Inc.)) according to detection of changes in magnetic field. Before the day prior to evaluation of pain response, a small magnet for the detection of changes in magnetic field was implanted in the left hindlimb instep under isoflurane anesthesia. For oral administration, the test compound was suspended in a solution containing 0.45% methyl cellulose/4.5% Ceremophor/10% dimethyl sulfoxide to prepare a suspension having a dosing volume of 10 ml/kg and the suspension was administered orally. The mixed solvent as above (vehicle) alone not containing the test compound was used as a negative control. Gabapentin was intraperitoneally administered as a positive control. A 2.5% formalin solution was prepared by diluting Formaldehyde Solution (Wako Pure Chemical Industries) with physiological saline (Otsuka Pharmaceutical). At 40 minutes to an hour after administration of the test compound or the positive control, 10 μl of the 2.5% formalin solution was subcutaneously injected in the left hindlimb pad. The mouse was placed in an observation chamber immediately after administration for measurement. For evaluation of an analgesic effect in the second phase, the duration of behaviors such as licking or biting of the paw was measured by the automated behavioral analysis apparatus from 15 to 45 minutes after injection of the 2.5% formalin solution. All data are expressed as the mean±SEM. All statistical analyses were performed using the Holm-Sidak's multiple comparisons test. The p-values less than 0.05 were judged as statistically significant in this experiment.

[2] = system: acute pain (mice hot plate, 53° C.); assay: Mice hot-plate test; format: in vivo, Male C57BL/6NCrlCrlj mice; settings: oral, 60 minutes before the hot-plate test; FIG. 1
Protocol: The mice hot-plate test was performed to determine the efficacy on acute pain. In this model, latency to the first pain response is recorded as a measure of pain sensitivity (Malmberg, A. and Yaksh, T., Pain. 1995, 60: 83-90).
Male C57BL/6NCrlCrlj mice (Charles River Japan) aged 6 weeks (n=4 to 10, for each treatment) were used for this experiment. The hot plate (model MK 350, Muromachi Kikai Co. Ltd) was set to 53° C. For oral administration, the test compound was suspended in an aqueous solution containing 0.45% methyl cellulose/4.5% Cremophor/10% dimethyl sulfoxide to prepare a suspension having a dosing volume of 10 ml/kg and the suspension was administered orally 60 minutes before the hot-plate test Morphine was used as a positive control and the mixed solvent (vehicle) alone not containing the test compound was used as a negative control.
Each mouse was placed on the hot plate and a stopwatch was immediately started for measurement. The latency time to the first pain response (paw lick or escape jump) was measured. The cut-off time was set to 30 seconds in order to avoid overdamage of the tissues, and the mouse was immediately removed from the hot-plate after measurement. All data are expressed as the mean±SEM. All statistical analyses were performed using Holm-Sidak's multiple comparisons test. The p-values less than 0.05 were judged as statistically significant in this experiment.

[3] = system: tactile allodynia in rat chronic constriction injury (CCI) model; assay: Rat chronic constriction injury (CCI) model, von Frey filament test; format: in vivo, Male SD rats; settings: for 50% Response threshold: mean±SEM; for response threshold against mechanical stimulation: pre-administration, 10 and 50 mg/kg oral
Text: The rat chronic constriction injury (CCI) model was used to determine the efficacy on the chronic pain. In this model, tactile allodynia, a typical symptom in chronic pain patients, can be evaluated by using a response threshold against mechanical stimulation by von Frey filaments as an index (Bennett G. J. and Xie, Y. K., (Pain 1988; 33: p 87-107).
Male SD rats (Charles River Japan) aged 6 weeks (n=4, each treatment performed twice in total) were used for this experiment. The rat chronic constriction injury (CCI) model was prepared in accordance with the method of Bennett and Xie above.
The common sciatic nerve was exposed at the level of the middle of the thigh by blunt dissection through biceps femoris under isoflurane anesthesia. Four ligatures (4-0 silk) were tied loosely around the sciatic nerve at about 1 mm spacing. The biceps femoris and the skin were sutured.
On 14 days after surgery, efficacy of the compounds on tactile allodynia was evaluated. The animals were housed in wire mesh bottom cages for 30 minutes prior to the start of the experiment for acclimation. The test compound was suspended in an aqueous solution containing 0.45% methyl cellulose/4.5% Cremophor/10% dimethyl sulfoxide to prepare a suspension having a dosing volume of 10 ml/kg and the suspension was administered orally. The above mixed solvent (vehicle) alone not containing the test compound was used as a negative control. The response threshold against mechanical stimulation was measured by the application of von Frey filaments at bending forces (0.4, 0.6, 1, 2, 4, 6, 8, and 15 g) to the plantar surface of the hind paw in accordance with Chaplan et al. (J Neuroscience Methods 1994; 53(1): p. 55-63). The von Frey filaments were pushed to the paw for 6 seconds to evaluate escape response. The 50% response threshold was determined in accordance with the up-down method of Dixon (Annual Review of Pharmacology and Toxicology 1980; 20: p. 441-462). The measurement was performed before administration and at 30, 90 and 180 minutes after administration. All data are expressed as the mean±SEM. All statistical analyses were performed using Two way Repeated Measures ANOVA followed by Dunnett's test. The p-values less than 0.05 were judged as statistically significant in this experiment.

[4] = 10 mg/kg oral, 30 min after administration
[5] = 10 mg/kg oral, 90 min after administration
[6] = 10 mg/kg oral, 180 min after administration
[7] = 10 mg/kg oral, Pre (before administration), 14 days after surgery
[8] = 50 mg/kg oral, 30 min after administration
[9] = 50 mg/kg oral, 90 min after administration
[10] = 50 mg/kg oral, 180 min after administration
[11] = 50 mg/kg oral, Pre (before administration), 14 days after surgery

Compound | duration of the pain response [1] | latency time to the first pain response [2] | 50% Response threshold [3, 4] | 50% Response threshold [3, 5] | 50% Response threshold [3, 6] | 50% Response threshold [3, 7] | analgesic effect on tactile allodynia in CCI model ([3]; 50 mg/kg oral) | 50% Response threshold [3, 8] | 50% Response threshold [3, 9] | 50% Response threshold [3, 10] | 50% Response threshold [3, 11] | response threshold against mechanical stimulation [3]
NS(=O)(=O)NC1c2c(Cl)cc(F)cc2CC1(F)F (single isomer, unassigned; (-)) [Compound 2, (−)-N-(7-chloro-2,2,5-trifluoro-2,3-dihydro-1H-inden-1-yl)sulfamide] | statistically significantly shortened | significantly increased | 3.2 ± 0.4 g | 4.1 ± 0.5 g | 3.1 ± 0.2 g | 2.4 ± 0.2 g | statistically significant analgesic effect | 4.2 ± 0.6 g | 7.6 ± 1.1 g | 4.0 ± 0.5 g | 2.3 ± 0.2 g | increased in an approximately dose dependent manner
NS(=O)(=O)N[C@H]1c2c(F)cc(F)cc2CC1(F)F [Compound 1, N-[(1S)-2,2,5,7-tetrafluoro-2,3-dihydro-1H-inden-1-yl]sulfamide] | statistically significantly shortened | significantly increased | 3.2 ± 0.3 g | 4.4 ± 0.5 g | 3.1 ± 0.3 g | 2.4 ± 0.2 g | statistically significant analgesic effect | 6.0 ± 0.7 g | 11.4 ± 1.4 g | 5.3 ± 0.6 g | 2.3 ± 0.2 g | increased in an approximately dose dependent manner
Cc1cccc2c1[C@H](NS(N)(=O)=O)C(F)(F)C2 [Compound 3, N-[(1S)-2,2-difluoro-7-methyl-2,3-dihydro-1H-inden-1-yl]sulfamide] | statistically significantly shortened | significantly increased | 2.6 ± 0.4 g | 3.5 ± 0.7 g | 3.9 ± 0.4 g | 2.4 ± 0.2 g |  | 3.1 ± 0.4 g | 3.2 ± 0.5 g | 4.0 ± 0.4 g | 2.4 ± 0.2 g | 
Cc1cc(F)cc2c1[C@H](NS(N)(=O)=O)C(F)(F)C2 [Compound 4, N-[(1S)-2,2,5-Trifluoro-7-methyl-2,3-dihydro-1H-inden-1-yl]sulfamide] | statistically significantly shortened | significantly increased | 3.6 ± 0.4 g | 5.2 ± 1.5 g | 5.2 ± 1.0 g | 2.4 ± 0.2 g |  | 4.3 ± 0.9 g | 6.9 ± 1.5 g | 5.6 ± 1.6 g | 2.4 ± 0.2 g | 
NS(=O)(=O)NCc1csc2ccccc12 [compound 1, N-(benzo[b]thiophen-3-ylmethyl)sulfamide, reference compound] |  |  | 2.7 ± 0.4 g | 3.4 ± 0.2 g | 3.4 ± 0.3 g | 2.5 ± 0.2 g |  | 3.5 ± 0.3 g | 3.9 ± 0.3 g | 2.8 ± 0.2 g | 2.5 ± 0.2 g | 
NS(=O)(=O)NC[C@H]1COc2cc(Cl)ccc2O1 [compound 2, (2S)-(−)-N-(6-chloro-2,3-dihydro-benzo[1,4]dioxin-2-ylmethyl)-sulfamide, reference compound] |  |  | 2.9 ± 0.4 g | 3.2 ± 0.4 g | 3.0 ± 0.2 g | 2.6 ± 0.2 g |  | 3.5 ± 0.3 g | 4.5 ± 0.4 g | 3.6 ± 0.6 g | 2.6 ± 0.2 g | 
